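Assay format: 96-well plates, 48-hour exposure. TGI marks complete inhibition of growth.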
What was measured:
Experiment in all cases: inhibition of tumour cell growth, NCI panel, 48 h
KM12 colon = test system: KM12 colon
TK-10 renal = test system: TK-10 renal
MDA-N = test system: MDA-N
RXF 393 renal = test system: RXF 393 renal
K-562 leukemia = test system: K-562 leukemia
OVCAR-5 ovarian = test system: OVCAR-5 ovarian
HS 578T breast = test system: HS 578T breast
MDA-MB-231 breast = test system: MDA-MB-231 breast
MOLT-4 leukemia = test system: MOLT-4 leukemia
NCI-H23 lung = test system: NCI-H23 lung
SF-539 CNS = test system: SF-539 CNS
SK-MEL-5 melanoma = test system: SK-MEL-5 melanoma
UO-31 renal = test system: UO-31 renal
MCF7 breast = test system: MCF7 breast
HOP-92 NSCLC = test system: HOP-92 NSCLC
NCI-H522 lung = test system: NCI-H522 lung
SN12C renal = test system: SN12C renal
SK-MEL-2 melanoma = test system: SK-MEL-2 melanoma
RPMI-8226 leukemia = test system: RPMI-8226 leukemia
HCT-15 colon = test system: HCT-15 colon
OVCAR-8 ovarian = test system: OVCAR-8 ovarian
SF-295 CNS = test system: SF-295 CNS
PC-3 prostate = test system: PC-3 prostate
SK-OV-3 ovarian = test system: SK-OV-3 ovarian
HCC-2998 colon = test system: HCC-2998 colon
HOP-62 NSCLC = test system: HOP-62 NSCLC
NCI-H460 lung = test system: NCI-H460 lung
HT29 colon = test system: HT29 colon
SNB-19 CNS = test system: SNB-19 CNS
IGROV1 ovarian = test system: IGROV1 ovarian
NCI-H226 lung = test system: NCI-H226 lung
SF-268 CNS = test system: SF-268 CNS
HL-60(TB) leukemia = test system: HL-60(TB) leukemia
A498 renal = test system: A498 renal
U251 CNS = test system: U251 CNS
NCI/ADR-RES ovarian = test system: NCI/ADR-RES ovarian
M14 melanoma = test system: M14 melanoma
A549 NSCLC = test system: A549 NSCLC
ACHN renal = test system: ACHN renal
SK-MEL-28 melanoma = test system: SK-MEL-28 melanoma
T-47D breast = test system: T-47D breast
BT-549 breast = test system: BT-549 breast
CAKI-1 renal = test system: CAKI-1 renal
COLO 205 colon = test system: COLO 205 colon
UACC-257 melanoma = test system: UACC-257 melanoma
OVCAR-4 ovarian = test system: OVCAR-4 ovarian
786-0 renal = test system: 786-0 renal
SR leukemia = test system: SR leukemia
SNB-75 CNS = test system: SNB-75 CNS
LOX IMVI melanoma = test system: LOX IMVI melanoma
HCT-116 colon = test system: HCT-116 colon
MDA-MB-435 = test system: MDA-MB-435
CCRF-CEM leukemia = test system: CCRF-CEM leukemia
MALME-3M melanoma = test system: MALME-3M melanoma
SW-620 colon = test system: SW-620 colon
OVCAR-3 ovarian = test system: OVCAR-3 ovarian
DU-145 prostate = test system: DU-145 prostate
UACC-62 melanoma = test system: UACC-62 melanoma
EKVX NSCLC = test system: EKVX NSCLC

SMILES: CSc1ccc(NC(=O)C2CCCCC2C(=O)O)cc1 (configuration not stated)
- TGI (KM12 colon): > 100 µM
- TGI (TK-10 renal): > 100 µM
- TGI (MDA-N): > 100 µM
- TGI (RXF 393 renal): > 100 µM
- TGI (K-562 leukemia): > 100 µM
- TGI (OVCAR-5 ovarian): > 100 µM
- TGI (HS 578T breast): > 100 µM
- TGI (MDA-MB-231 breast): > 100 µM
- TGI (MOLT-4 leukemia): > 100 µM
- TGI (NCI-H23 lung): > 100 µM
- TGI (SF-539 CNS): > 100 µM
- TGI (SK-MEL-5 melanoma): > 100 µM
- TGI (UO-31 renal): > 100 µM
- TGI (MCF7 breast): > 100 µM
- TGI (HOP-92 NSCLC): > 100 µM
- TGI (NCI-H522 lung): > 100 µM
- TGI (SN12C renal): > 100 µM
- TGI (SK-MEL-2 melanoma): > 100 µM
- TGI (RPMI-8226 leukemia): > 100 µM
- TGI (HCT-15 colon): > 100 µM
- TGI (OVCAR-8 ovarian): > 100 µM
- TGI (SF-295 CNS): > 100 µM
- TGI (PC-3 prostate): > 100 µM
- TGI (SK-OV-3 ovarian): > 100 µM
- TGI (HCC-2998 colon): > 100 µM
- TGI (HOP-62 NSCLC): > 100 µM
- TGI (NCI-H460 lung): > 100 µM
- TGI (HT29 colon): > 100 µM
- TGI (SNB-19 CNS): > 100 µM
- TGI (IGROV1 ovarian): > 100 µM
- TGI (NCI-H226 lung): > 100 µM
- TGI (SF-268 CNS): > 100 µM
- TGI (HL-60(TB) leukemia): > 100 µM
- TGI (A498 renal): > 100 µM
- TGI (U251 CNS): > 100 µM
- TGI (NCI/ADR-RES ovarian): > 100 µM
- TGI (M14 melanoma): > 100 µM
- TGI (A549 NSCLC): > 100 µM
- TGI (ACHN renal): > 100 µM
- TGI (SK-MEL-28 melanoma): > 100 µM
- TGI (T-47D breast): > 100 µM
- TGI (BT-549 breast): > 100 µM
- TGI (CAKI-1 renal): > 100 µM
- TGI (COLO 205 colon): > 100 µM
- TGI (UACC-257 melanoma): > 100 µM
- TGI (OVCAR-4 ovarian): > 100 µM
- TGI (786-0 renal): > 100 µM
- TGI (SR leukemia): > 100 µM
- TGI (SNB-75 CNS): > 100 µM
- TGI (LOX IMVI melanoma): > 100 µM
- TGI (HCT-116 colon): > 100 µM
- TGI (MDA-MB-435): > 100 µM
- TGI (CCRF-CEM leukemia): > 100 µM
- TGI (MALME-3M melanoma): > 100 µM
- TGI (SW-620 colon): > 100 µM
- TGI (OVCAR-3 ovarian): > 100 µM
- TGI (DU-145 prostate): > 100 µM
- TGI (UACC-62 melanoma): > 100 µM
- TGI (EKVX NSCLC): > 100 µM

SMILES: C[C@]12OC(=O)[C@]3(O)CC[C@H]4[C@@H](C[C@@H](O)[C@@]5(Cl)CC=CC(=O)[C@]45C)[C@]45OCC6C(=O)O[C@@H]1C[C@@]6(C)[C@H](C4=O)[C@@]32O5 (some centres not stated)
- TGI (KM12 colon): 8.59 µM
- TGI (TK-10 renal): 7.18 µM
- TGI (MDA-N): 17 µM
- TGI (RXF 393 renal): 1.04 µM
- TGI (K-562 leukemia): 23.8 µM
- TGI (OVCAR-5 ovarian): 3.23 µM
- TGI (HS 578T breast): 44.5 µM
- TGI (MDA-MB-231 breast): 28.6 µM
- TGI (MOLT-4 leukemia): 17.4 µM
- TGI (NCI-H23 lung): 1.83 µM
- TGI (SF-539 CNS): 1.97 µM
- TGI (SK-MEL-5 melanoma): 13.2 µM
- TGI (UO-31 renal): 2.57 µM
- TGI (MCF7 breast): 4 µM
- TGI (HOP-92 NSCLC): 5.68 µM
- TGI (NCI-H522 lung): 1.14 µM
- TGI (SN12C renal): 19.3 µM
- TGI (SK-MEL-2 melanoma): 2.71 µM
- TGI (RPMI-8226 leukemia): 8.6 µM
- TGI (HCT-15 colon): 7.61 µM
- TGI (OVCAR-8 ovarian): 8.39 µM
- TGI (SF-295 CNS): 12.4 µM
- TGI (PC-3 prostate): 8.71 µM
- TGI (SK-OV-3 ovarian): 10.9 µM
- TGI (HCC-2998 colon): 2.55 µM
- TGI (HOP-62 NSCLC): 10.3 µM
- TGI (NCI-H460 lung): 9.54 µM
- TGI (HT29 colon): 5.35 µM
- TGI (SNB-19 CNS): 18.2 µM
- TGI (IGROV1 ovarian): 2.74 µM
- TGI (NCI-H226 lung): 9.37 µM
- TGI (SF-268 CNS): 7.39 µM
- TGI (HL-60(TB) leukemia): 12.8 µM
- TGI (A498 renal): 2.91 µM
- TGI (U251 CNS): 15 µM
- TGI (NCI/ADR-RES ovarian): 60.6 µM
- TGI (M14 melanoma): 2.47 µM
- TGI (A549 NSCLC): 75 µM
- TGI (ACHN renal): 5.9 µM
- TGI (SK-MEL-28 melanoma): 75 µM
- TGI (T-47D breast): 23.3 µM
- TGI (BT-549 breast): 2.27 µM
- TGI (CAKI-1 renal): 4.03 µM
- TGI (COLO 205 colon): 17.1 µM
- TGI (UACC-257 melanoma): 8.2 µM
- TGI (OVCAR-4 ovarian): 8.63 µM
- TGI (786-0 renal): 11.3 µM
- TGI (SR leukemia): 14.2 µM
- TGI (SNB-75 CNS): 19.6 µM
- TGI (LOX IMVI melanoma): 6.46 µM
- TGI (HCT-116 colon): 12 µM
- TGI (MDA-MB-435): 23.8 µM
- TGI (CCRF-CEM leukemia): 6.69 µM
- TGI (MALME-3M melanoma): 5.04 µM
- TGI (SW-620 colon): 12.6 µM
- TGI (OVCAR-3 ovarian): 6.65 µM
- TGI (DU-145 prostate): 24.3 µM
- TGI (UACC-62 melanoma): 4.2 µM
- TGI (EKVX NSCLC): 4.91 µM

SMILES: CCCCCOc1ccc(Nc2c(O)c3c(c(O)c2Cl)C(=O)C=CC3=O)cc1
- TGI (KM12 colon): > 10 µM
- TGI (TK-10 renal): > 10 µM
- TGI (MDA-N): > 9.3 µM
- TGI (RXF 393 renal): > 10 µM
- TGI (K-562 leukemia): > 9.65 µM
- TGI (OVCAR-5 ovarian): > 10 µM
- TGI (HS 578T breast): 7.39 µM
- TGI (MDA-MB-231 breast): > 8.25 µM
- TGI (MOLT-4 leukemia): > 10 µM
- TGI (NCI-H23 lung): > 6.51 µM
- TGI (SF-539 CNS): > 10 µM
- TGI (SK-MEL-5 melanoma): > 10 µM
- TGI (UO-31 renal): > 9.67 µM
- TGI (MCF7 breast): > 10 µM
- TGI (HOP-92 NSCLC): > 9.51 µM
- TGI (NCI-H522 lung): 5.39 µM
- TGI (SN12C renal): > 10 µM
- TGI (SK-MEL-2 melanoma): > 10 µM
- TGI (RPMI-8226 leukemia): 7.76 µM
- TGI (HCT-15 colon): 3.93 µM
- TGI (OVCAR-8 ovarian): > 5.87 µM
- TGI (SF-295 CNS): > 10 µM
- TGI (PC-3 prostate): > 10 µM
- TGI (SK-OV-3 ovarian): > 10 µM
- TGI (HCC-2998 colon): > 7.84 µM
- TGI (HOP-62 NSCLC): > 10 µM
- TGI (NCI-H460 lung): > 10 µM
- TGI (HT29 colon): > 10 µM
- TGI (SNB-19 CNS): > 10 µM
- TGI (IGROV1 ovarian): > 10 µM
- TGI (NCI-H226 lung): > 10 µM
- TGI (SF-268 CNS): > 10 µM
- TGI (HL-60(TB) leukemia): 3.79 µM
- TGI (A498 renal): > 10 µM
- TGI (U251 CNS): > 10 µM
- TGI (NCI/ADR-RES ovarian): > 10 µM
- TGI (M14 melanoma): > 10 µM
- TGI (A549 NSCLC): > 10 µM
- TGI (ACHN renal): > 10 µM
- TGI (SK-MEL-28 melanoma): 8.66 µM
- TGI (T-47D breast): > 9.64 µM
- TGI (BT-549 breast): > 6.94 µM
- TGI (CAKI-1 renal): > 10 µM
- TGI (COLO 205 colon): > 8.02 µM
- TGI (UACC-257 melanoma): > 10 µM
- TGI (OVCAR-4 ovarian): 9.97 µM
- TGI (786-0 renal): > 10 µM
- TGI (SR leukemia): 6.99 µM
- TGI (SNB-75 CNS): > 10 µM
- TGI (LOX IMVI melanoma): 3.72 µM
- TGI (HCT-116 colon): > 10 µM
- TGI (MDA-MB-435): 5.53 µM
- TGI (CCRF-CEM leukemia): > 10 µM
- TGI (MALME-3M melanoma): > 6.38 µM
- TGI (SW-620 colon): > 10 µM
- TGI (OVCAR-3 ovarian): > 6.54 µM
- TGI (DU-145 prostate): > 10 µM
- TGI (UACC-62 melanoma): > 10 µM
- TGI (EKVX NSCLC): > 10 µM

Reference: PubChem BioAssay (NCI)
